In publication PMC6631462, “Quaternary Ammonium Leucine-Based Surfactants: The Effect of a Benzyl Group on Physicochemical Properties and Antimicrobial Activity” (Pharmaceutics, 2019):
Several values for one entry are separate records, joined by “and”; a condition that tells them apart may be missing. Identical values can stand only once. Like-named read-outs stand apart in the source and are kept apart here.

How the values were obtained:
[1] = system: Calu-3 cells; experiment: LDH release assay on Calu-3 cells; assay type: cell-based; details: Calu-3, concentration causing 50% LDH release, mean ± SD
Experimental: (§1) Colorectal-carcinoma-derived epithelial Caco-2 cells (European Collection of Cell Cultures) and airway epithelial Calu-3 cells (American Type Culture Collection; ATCC) were cultured in DMEM supplemented with 10% of FBS and 1% of an antibiotic–antimycotic mixture. Erythrocytes were collected from mice blood. The cytotoxicity of the N-benzyl quaternary ammonium surfactants derived from leucine in comparison to the commercial BAC was studied by performing two cytotoxicity assays (MTS and LDH as indicators of metabolic activity and membrane integrity, respectively) and by a haemolytic assay. The assays were conducted as reported in our previous publications. EC50 values from the MTS assay (concentration of surfactant that causes 50% cell death) and the LDH assay (concentration of surfactants that causes 50% LDH release from cells), as well as HC50 values from the haemolytic assay (concentration of surfactants that causes 50% haemoglobin release from erythrocytes) were calculated using a nonlinear regression model (Prism version 5.0, GraphPad Inc., San Diego, CA, USA) as follows:(3) Y=BOTTOM+Top−Bottom/1+10^(LogEC50−x) Hill Slope where Top and Bottom are plateaux in the units of the Y axis.

[2] = system: Caco-2 cells; experiment: LDH release assay on Caco-2 cells; assay type: cell-based; details: Caco-2, concentration causing 50% LDH release, mean ± SD
Experimental: as §1

[3] = system: Enterococcus faecalis ATCC 29212; experiment: Antimicrobial assay, MIC determination (EUCAST); assay type: cell-based; details: for Selectivity index EC50/MIC: MIC E. faecalis; for MIC: E. faecalis
Experimental: (§2) Bacterial strains were cultured overnight at 35–36 °C in blood agar plates. Minimum inhibitory concentrations (MICs) were determined according to previous reports and following protocols defined by the European Committee on Antimicrobial Susceptibility Testing (EUCAST). MICs against Candida albicans were determined using a similar protocol with some adaptations to the yeast growth and requirements. All tests were done in triplicate. [table]

[4] = system: Escherichia coli ATCC 25922; experiment: Antimicrobial assay, MIC determination (EUCAST); assay type: cell-based; details: for Selectivity index EC50/MIC: MIC E. coli; for MIC: E. coli
Experimental: as §2

[5] = system: Staphylococcus aureus ATCC 25923; experiment: Antimicrobial assay, MIC determination (EUCAST); assay type: cell-based; details: for Selectivity index EC50/MIC: MIC S. aureus; for MIC: S. aureus
Experimental: as §2

[6] = system: Pseudomonas aeruginosa ATCC 27853; experiment: Antimicrobial assay, MIC determination (EUCAST); assay type: cell-based; details: for Selectivity index EC50/MIC: MIC P. aeruginosa; for MIC: P. aeruginosa
Experimental: as §2

[7] = system: Caco-2 cells; experiment: MTS cytotoxicity assay on Caco-2 cells; assay type: cell-based; details: Caco-2, concentration causing 50% reduction of viable cells, mean ± SD
Experimental: as §1

[8] = Surface tension measurements (De Nouy ring tensiometry); assay type: physicochemical; details: for 10^6 Γmax (surface excess concentration): Gibbs equation from tensiometry; for 10^6 Γmax (surface excess concentration) / CMC / γCMC (surface tension at CMC): 25 °C; for 10^6 Γmax (surface excess concentration) / Amin (area per molecule at water–air interface): mean ± SD; for Amin (area per molecule at water–air interface): derived from Γmax; for CMC / γCMC (surface tension at CMC): ultrapure water, tensiometry, mean ± SD of three replicates
Experimental: Different concentrations for each surfactant were prepared by dissolving the compounds in ultrapure water. Their ability to decrease air–water surface tension was studied at 25 °C using a DCA-100 tensiometer (First Ten Angstrom, Portsmouth, VA, USA) according to the De Nouy ring method. Each recorded surface tension value was the mean of three consecutive measurements. The ‘breakpoint’ of the plot of surface tension versus concentration of surfactant was used to calculate the critical micelle concentration (CMC, i.e., the minimum concentration at which surfactants aggregate to form micelles) and the surface tension at CMC (γCMC). The “breakpoint” is the point of intersection of the two lines fitting the experimental data by a linear regression model (Prism version 5.0, GraphPad Inc., San Diego, CA, USA). Tensiometric measurements allowed for the calculation of an additional two parameters related to the surface behaviour of surfactants. The first is the ‘surface excess concentration’, Γmax, which is a measure of how many surfactant molecules are adsorbed at the air–water interface, which was calculated using the Gibbs equation:(1) Γmax=1/2.303 nRT (δγ/δlogC) where R is the gas constant (8.314 J/mol K); T is the absolute temperature (K); n is equal to 1 for single chain ionic surfactants displaying only one ionisable group; and dγ/d log C can be calculated from the slope of the straight section before the CMC in the plot of surface tension versus concentration of the surfactant.
The other parameter is the area occupied by a single molecule of surfactant at the water–air interface (As), and is derived from Γmax through the equation:(2) Amin= 10^18/NΓmax.
All analyses were performed in triplicate.

[9] = system: Calu-3 cells; experiment: MTS cytotoxicity assay on Calu-3 cells; assay type: cell-based; details: Calu-3, concentration causing 50% reduction of viable cells, mean ± SD
Experimental: as §1

[10] = system: erythrocytes; experiment: Haemolytic assay; assay type: cell-based, mice; details: concentration causing 50% haemoglobin release from erythrocytes, mean ± SD
Experimental: as §1

[11] = system: Candida albicans ATCC 24433; experiment: Antimicrobial assay, MIC determination (adapted to yeast); assay type: cell-based; details: for MIC: C. albicans; for Selectivity index EC50/MIC: MIC C. albicans
Experimental: as §2

[12] = Enterococcus faecalis, ATCC29212, read-out: MIC
[13] = Escherichia coli, ATCC25922, read-out: MIC
[14] = Staphylococcus aureus, ATCC25923, read-out: MIC
[15] = Pseudomonas aeruginosa, ATCC27853, read-out: MIC
[16] = Candida albicans, ATCC24433, read-out: MIC

Compound | EC50 ([1]; Homo sapiens) [µM] | EC50 ([2]; Homo sapiens) [µM] | Selectivity index EC50/MIC ([3]; EC50 from MTS assay on Calu-3) | MIC [3, 12] | Selectivity index EC50/MIC ([4]; EC50 from MTS assay on Caco-2) | Selectivity index EC50/MIC ([4]; EC50 from MTS assay on Calu-3) | MIC [4, 13] | Selectivity index EC50/MIC ([5]; EC50 from MTS assay on Caco-2) | Selectivity index EC50/MIC ([5]; EC50 from MTS assay on Calu-3) | MIC [5, 14] | Selectivity index EC50/MIC ([6]; EC50 from MTS assay on Caco-2) | Selectivity index EC50/MIC ([6]; EC50 from MTS assay on Calu-3) | MIC [6, 15] | 10^6 Γmax (surface excess concentration) [8] [mol/m^2] | Amin (area per molecule at water–air interface) [8] [A^2] | CMC [8] | γCMC (surface tension at CMC) [8] | Haemolysis HC50 [10] [mM] | Selectivity index EC50/MIC ([11]; EC50 from MTS assay on Caco-2) | Selectivity index EC50/MIC ([11]; EC50 from MTS assay on Calu-3) | other results
CCCCCCCCCCOC(=O)C(CC(C)C)[N+](C)(C)Cc1ccccc1 (stereo not shown) [C10 LEU BENZ] | 187 ± 24 | 158 ± 15 | 15.2 | 4 µg/mL and 7.7 µM | 1.3 | 0.9 | 64 µg/mL and 124 µM | 42.1 | 30.8 | 2 µg/mL and 3.8 µM | 0.6 | 0.5 | > 128 µg/mL and > 248 µM | 6.76 ± 0.22 | 24.09 ± 1.45 | 1.88 ± 0.16 mM | around 30 mN/m and 31.75 ± 0.09 mN/m | 0.148 ± 0.018 | 1.3 | 0.9 | EC50 ([7]; Homo sapiens): 160 ± 7 µM; EC50 ([9]; Homo sapiens): 117 ± 5 µM; MIC [11, 16]: 124 µM and 64 µg/mL
CCCCCCCCCCCCOC(=O)C(CC(C)C)[N+](C)(C)Cc1ccccc1 (stereo not shown) [C12 LEU BENZ] | 19 ± 3 | 19 ± 2 | 1.0 | 4 µg/mL to 8 µg/mL and 10.6 µM | 0.3 | 0.2 | 32 µg/mL and 58.6 µM | 1.5 | 1.0 | 4 µg/mL to 8 µg/mL and 10.6 µM | 0.07 | 0.05 | 128 µg/mL and 235 µM | 6.10 ± 0.24 | 27.27 ± 1.34 | around 1 mM and 0.92 ± 0.11 mM | ~40 mN/m and 40.38 ± 0.13 mN/m | 0.054 ± 0.004 | 0.5 | 0.4 | Selectivity index EC50/MIC ([3]; EC50 from MTS assay on Caco-2): 1.5; EC50 ([7]; Homo sapiens): 16 ± 3 µM; EC50 ([9]; Homo sapiens): 11 ± 2 µM; MIC [11, 16]: 29.3 µM and 16 µg/mL
CCCCCCCCCCCCCCOC(=O)C(CC(C)C)[N+](C)(C)Cc1ccccc1 (stereo not shown) [C14 LEU BENZ] | 14 ± 2 | 12 ± 2 | 4.0 | 2 µg/mL and 3.5 µM | 0.5 | 0.5 | 16 µg/mL and 27.9 µM | 5 | 5.4 | 1 µg/mL to 2 µg/mL and 2.6 µM | 0.06 | 0.06 | 128 µg/mL and 223 µM | 7.39 ± 0.31 | 22.46 ± 1.11 | 0.12 ± 0.08 mM | ~40 mN/m and 40.35 ± 0.11 mN/m | 0.027 ± 0.006 | 0.9 | 1.0 | Selectivity index EC50/MIC ([3]; EC50 from MTS assay on Caco-2): 3.7; EC50 ([7]; Homo sapiens): 13 ± 2 µM; EC50 ([9]; Homo sapiens): 14 ± 2 µM; MIC [11, 16]: 13.9 µM and 8 µg/mL
Benzalkonium chloride [BAC, reference compound] |  |  | 7.7 |  | 2.9 | 1.9 |  | 11.5 | 7.7 |  | 0.4 | 0.2 |  | 5.35 ± 0.27 | 31.08 ± 1.60 | around 1 mM and 1.02 ± 0.06 mM | around 30 mN/m and 31.16 ± 0.05 mN/m | 0.064 ± 0.004 | 2.9 | 1.9 | EC50 [1]: 29 ± 5 µM; EC50 [2]: 48 ± 4 µM; MIC [3]: 1 mg/L; MIC ([3]; read-out: MIC): 2.9 µM; Selectivity index EC50/MIC ([3]; EC50 from MTS assay on Caco-2): 11.5; MIC [4]: 4 mg/L; MIC ([4]; read-out: MIC): 11.5 µM; MIC [5]: 1 mg/L; MIC ([5]; read-out: MIC): 2.9 µM; MIC [6]: 32 mg/L; MIC ([6]; read-out: MIC): 91.8 µM; EC50 [7]: 33 ± 1 µM; EC50 [9]: 22 ± 5 µM; MIC [11]: 4 mg/L; MIC ([11]; read-out: MIC): 11.5 µM
